A short description of data set [1]: T1 relaxation (relaxivity) in plasma. Format: physicochemical. An excerpt: (§1) T1 relaxation (1/mmol·sec) is
(§2) The T1 relaxation (1/mmol·sec) is
(§3) The T1 relaxation (1/mmol·sec) amounts to
(§4) The T1 relaxation (1mmol·sec) is […]

The nature of data set [2]: T1 relaxation (relaxivity) in water. The format is physicochemical.
Excerpt: as §1, §2, §3, §4

Data set [3] concerns rats. In words: in vivo MRI in rats, T1-weighted spin echo, liver/stomach/osteogenic sarcoma. The conditions noted are these: 0.1 mmol Gd/kg i.v.; for enhancement of the stomach: ranking among the three compounds. Also on record: species or system rat (female, Lew/Mol). An excerpt:
The test animals were female rats of the strain Lew/Mol weighing 160-180 g. Prior to imaging, the animals were anesthetized ("Rompun"+"Ketavet") and provided with a catheter in the caudel vein to administer the contrast medium. Imaging took place in an MRI experimental device by General Electric (field strength 2 tesla). First of all, the images (7, 9, 11) were made without contrast medium with a T1 -weighted spin echo sequence (TR=400 msec, TE=20 msec, axial section plane, layer thickness 3 mm). The liver appears in each case with the normal signal intensity; the stomach is darker in tendency than the liver. […] This is due to feed residues, the feed containing manganese in relatively high concentrations (at the time of the test, the animals had been fasting for 6 hours). Animal 3 had been implanted with an osteogenic sarcoma three weeks previously; this sarcoma was of equal contrast in the blank image and could not be defined. The administration of contrast medium took place via the venous catheter with a dose of 0.1 mmol Gd/kg (concentration of the solutions 0.05 mmol Gd/ml in 0.9% NaCl) for all 3 compounds.

For data set [4], the system named is rats. In words: in vivo NMR imaging in rat with Brown Pearce tumor (spin echo, 2 tesla). The conditions noted are these: 0.06 mmol/kg i.v. Further details: species or system rat (male hairless, Lew/Mol). An excerpt: Spin echo scans were made with the NMR tomograph (CSI 2 T) at 2 tesla (TR time of 400 ms and TE time of 20 ms).
The contrast medium was administrated intravenously into a caudal vein of a male hairless rat (Lew/Mol) weighing 190 g, in a dose of 0.06 mmol/kg.

The subject of data set [5] is rats. Conditions: at this point in time after administration; no own data shown; cited from earlier work.

As for “Gadolinium Complex of 3,6,9-Triaza-3,6,9-tris-(carboxymethyl)-4-benzylundecanedioic Acid [Example 4(d)]”, the T1 relaxation in data set [1] is 6.89 ± 0.17 mmol⁻¹ s⁻¹; in data set [2], 4.54 ± 0.13 mmol⁻¹ s⁻¹.

With “Gadolinium Complex of 3,6,9-Triaza-3,6,9-tris-(carboxymethyl)-4-benzyloxymethylundecanedioic Acid [Example 5(c)]”, the T1 relaxation stood at 6.31 ± 0.15 mmol⁻¹ s⁻¹ in data set [1] and 4.39 ± 0.12 mmol⁻¹ s⁻¹ in data set [2].

As for “Gadolinium Complex of 3,6,9-Triaza-3,6,9-tris-(carboxymethyl)-4-[4-(4-methoxybenzyloxy)benzyl]-undecanedioic Acid [Example 3(c)]”, the T1 relaxation in data set [1] was 6.99 ± 0.13 mmol⁻¹ s⁻¹; in data set [2] it was 4.23 ± 0.16 mmol⁻¹ s⁻¹.

Regarding `CCOc1ccc(CC(CN(CCN(CC(=O)[O-])CC(=O)[O-])CC(=O)[O-])N(CC(=O)[O-])CC(=O)[O-])cc1.[Gd+3].[Na+].[Na+]` (centres unmarked) [Example 8(c), Disodium Salt of the Gadolinium Complex of 3,6,9-Triaza-3,6,9-tris(carboxymethyl)-4-(4-ethoxybenzyl)undecanedioic Acid], the “enhancement of the liver” value with rats [3] (after 90 minutes) is on record as “marked enhancement of the liver”. Further, the “enhancement of the stomach” value in the data set with rats [3] is listed as “least”. The figures for the T1 relaxation in data set [1] and in data set [2] were 8.69 ± 0.53 mmol⁻¹ s⁻¹ and 5.33 ± 0.13 mmol⁻¹ s⁻¹, respectively.

As for `CCCCOc1ccc(CC(CN(CCN(CC(=O)[O-])CC(=O)[O-])CC(=O)[O-])N(CC(=O)[O-])CC(=O)[O-])cc1.[Gd+3].[Na+].[Na+]` (centres unmarked) [Example 9(c), Disodium Salt of the Gadolinium Complex of 3,6,9-Triaza-3,6,9-tris(carboxymethyl)-4-(4-butoxybenzyl)undecanedioic Acid], the “enhancement of the liver” value in the data set with rats [3] (after 60 minutes) is given as “marked enhancement of the liver”. The T1 relaxation in data set [1] (unit printed without slash) is listed as 14.20±0.98 1mmol·sec; in data set [2] (unit printed without slash), 5.80±0.26 1mmol·sec.

In the case of “Gadolinium Complex of 3,6,9-Triaza-3,6,9-tris-(carboxymethyl)-5-(4-methoxybenzyl)undecanedioic Acid [Example 2(c)]”, the T1 relaxation worked out at 6.61 ± 0.18 mmol⁻¹ s⁻¹ in data set [1] and 4.17 ± 0.14 mmol⁻¹ s⁻¹ in data set [2].

With `COc1ccc(CC(CN(CCN(CC(=O)[O-])CC(=O)[O-])CC(=O)[O-])N(CC(=O)[O-])CC(=O)[O-])cc1.[Gd+3].[Na+].[Na+]` (centres unmarked) [Example 1(c) disodium salt, Gadolinium Complex of 3,6,9-Triaza-3,6,9-tris-(carboxymethyl)-4-(4-methoxybenzyl)undecanedioic Acid], the T1 relaxation in data set [1] was 6.89 ± 0.17 mmol⁻¹ s⁻¹. Moreover, in the data set on rats [4] (45 minutes after injection), the “increase in contrast in the stomach” value is listed as “strong increase in contrast”. In the data set with rats [4] (60 minutes after injection), the “contrasting of the intestine” value was “contrasting of the intestine can likewise be observed”, the “contrasting of the renal pelvis” value is recorded as “striking”, the “visualization of the stomach” value is “good visualization” and the “visualization of the urinary bladder” value is “good visualization”. In the data set on rats [4] (60 minutes after injection, Brown Pearce tumor in the thigh), the “visualization of the tumor” value is on record as “good visualization”. For the same compound, the “contrasting of the renal pelvis” value in the data set with rats [4] (65 minutes after injection, somewhat different layer) is reported as “even more improved”. Further, in the data set on rats [4] (180 minutes after injection, axial scan), the “contrast enhancement in the zone of the liver” value is listed as “contrast enhancement is likewise clearly recognizable”. In the data set on rats [4] (one minute after administration), the “contrast enhancement in the urinary bladder” value is “first enhancement is already apparent”. The compound also yielded a T1 relaxation in data set [2] of 4.54 ± 0.13 mmol⁻¹ s⁻¹.

In the case of `CNC[C@H](O)[C@@H](O)[C@H](O)[C@H](O)CO.CNC[C@H](O)[C@@H](O)[C@H](O)[C@H](O)CO.O=C([O-])CN(CCN(CC(=O)[O-])CC(=O)O)CCN(CC(=O)[O-])CC(=O)O.[Gd+3]` [Magnevist, dimeglumine salt of Gd DTPA [gadolinium(III)complex of diethylenetriaminepentaacetic acid]], the “enhancement of the liver (comparison)” value in the data set with rats [5] is listed as “cannot be observed”.

As for “Gadolinium Complex of 3,6,9-Triaza-3,6,9-tris-(carboxymethyl)-4-(4-carboxymethoxybenzyl)-undecanedioic Acid [Example 6(c)]”, the T1 relaxation in data set [1] came to 7.10 ± 0.08 mmol⁻¹ s⁻¹; in data set [2] it was 5.00 ± 0.01 mmol⁻¹ s⁻¹.

Regarding `O=C([O-])CN(CCN(CC(=O)[O-])CC(Cc1ccc(OCc2ccccc2)cc1)N(CC(=O)[O-])CC(=O)[O-])CC(=O)[O-].[Gd+3].[Na+].[Na+]` (centres unmarked) [Example 10(c), Disodium Salt of the Gadolinium Complex of 3,6,9-Triaza-3,6,9-tris(carboxymethyl)-4-(4-benzyloxybenzyl)undecanedioic Acid], in the data set on rats [3] (after 60 minutes), the “enhancement of the liver” value was “marked enhancement of the liver”. Besides, in the data set on rats [3] (animal 3, osteogenic sarcoma implanted three weeks previously, 60 minutes), the “visibility of the tumor” value is on record as “clearly visible”. Further, the “absorption of the contrast medium by the tumor” value with rats [3] (animal 3, osteogenic sarcoma, 60 minutes) is reported as “not absorbed the contrast medium at all, or only to a lesser proportion”. In addition, the “enhancement of the stomach” value in the data set with rats [3] is “most strongly”. Further, the T1 relaxation in data set [1] was determined as 16.35 ± 1.01 mmol⁻¹ s⁻¹; in data set [2], 5.81 ± 0.11 mmol⁻¹ s⁻¹.
